Measurements as given in US12144795B2, “Cannabidiol compositions having modified cannabinoid profiles” (priority 2018, dated 2024).
Converted amounts (≈) assume the structure as drawn. Read-outs that look alike come from different tables or passages of the source.

Columns and labels:
[1] = Evaporative crystallization from solvent mixtures, form by HT-XRPD before and after AAC; format: physicochemical; conditions: Acetonitrile / Water (50/50, v/v)
Method: Recrystallization experiments were conducted to screen for potential CBD polymorphs and evaluate the ability of the recrystallized CBD to expel impurities. The following recrystallization methods were undertaken: • evaporative crystallization from solvent mixtures; • antisolvent crystallization; • cooling crystallization; • single solvent drop grinding; • crystallization by crash-cooling; • vapor-diffusion-into-solution crystallization; and • crystallization by liquid diffusion. In each method, the starting material consisted of crystallized CBD of form A. Evaporative Crystallization from Solvent Mixtures
Without wishing to be bound by theory, the general principle behind evaporative crystallization using solvent anti-solvent mixtures is that the solvent evaporates, first causing the API to precipitate to some extent, and this material then acts as a seed, when the anti-solvent is evaporated. The first evaporation step is slow and is followed by a faster final evaporation phase. All crystalline samples were Form A both before and after the solids were exposed to accelerated ageing conditions. An oil-like substance was obtained from an acetonitrile/water solvent mixture that could not be analyzed by XRPD; therefore, this sample was not exposed to accelerated aging conditions.

[2] = Cannabidiol solubility in neat solvents and mixtures, isooctane solubility curve; format: physicochemical; conditions: for solubility: read-out: Solubility at RT
Excerpt: Isooctane was selected as the final crystallization solvent due the low solubility and similar properties to heptane, i.e., low viscosity and boiling point relative to other higher hydrocarbons (Table 33). Based on the solubility and desire to maximize yield, an isooctane volume of 4.0 L/kg was selected as an appropriate crystallization concentration. Prior to crystallization, it was desired to fully dissolve the CBD in isooctane and filter the process stream. […] The isolation temperature of −20° C. was chosen to maximize the yield of the CBD from the final crystallization.

In the case of `C=C(C)[C@@H]1CCC(C)=C[C@H]1c1c(O)cc(CCCCC)cc1O` [CBD, (1′R,2′R)-5′-methyl-4-pentyl-2′-(prop-1-en-2-yl)-1′,2′,3′,4′-tetrahydro-[1,1′-biphenyl]-2,6-diol], the “Form by HT-XRPD Before AAC” value [1] is reported as “Oily”, the solubility ([2]; 1,2-dimethoxyethane, organic solvent or mixture) is reported as greater than 100 mg/mL and the solubility ([2]; 1,4-dioxane, organic solvent or mixture) is reported as greater than 100 mg/mL. It also gave a solubility ([2]; 1-propanol, organic solvent or mixture) greater than 100 mg/mL, a solubility ([2]; 2-butanone, organic solvent or mixture) greater than 100 mg/mL and a solubility ([2]; 10/90 water/ethanol, organic solvent or mixture) greater than 100 mg/mL. For the same compound, the solubility ([2]; 30/70 water/IPA, organic solvent or mixture) was greater than 20 mg/mL, the solubility ([2]; 30/70 water/ethanol, organic solvent or mixture) was 20 to 70 mg/mL (≈ 63.6 to 223 mM) and the “Solubility at RT” value ([2]; 40/60 Water Methanol) was “oil”. For the same compound, the “Solubility at RT” value ([2]; 45/65 Water Methanol) was 3.4 mg/mL (≈ 10.8 mM), the “Solubility at RT” value ([2]; 50/50 Water/Methanol) was 0.3 mg/mL (≈ 0.954 mM) and the solubility ([2]; 50/50 water/IPA, aqueous with cosolvent or surfactant or cyclodextrin) was 10 to 20 mg/mL (≈ 31.8 to 63.6 mM). The solubility ([2]; 50/50 water/ethanol, aqueous with cosolvent or surfactant or cyclodextrin) was less than 5 mg/mL, the solubility ([2]; ACN, organic solvent or mixture) was greater than 100 mg/mL and the solubility ([2]; CIP 100, aqueous with cosolvent or surfactant or cyclodextrin) was less than 1 mg/mL. The solubility ([2]; CIP 200, aqueous with cosolvent or surfactant or cyclodextrin) was less than 1 mg/mL, the solubility ([2]; DCM, organic solvent or mixture) was greater than 100 mg/mL and the solubility ([2]; EtOAc, organic solvent or mixture) was greater than 100 mg/mL. It also gave a solubility ([2]; EtOH, organic solvent or mixture) greater than 100 mg/mL, a solubility ([2]; IPA, organic solvent or mixture) greater than 100 mg/mL and a solubility ([2]; IPOAc, organic solvent or mixture) greater than 100 mg/mL. It also gave a solubility ([2]; MTBE, organic solvent or mixture) greater than 100 mg/mL, a solubility ([2]; MeOH, organic solvent or mixture) greater than 100 mg/mL and a solubility ([2]; MeTHF saturated with water, organic solvent or mixture) greater than 100 mg/mL. The solubility ([2]; MeTHF, organic solvent or mixture) was greater than 100 mg/mL, the solubility ([2]; NMPO, organic solvent or mixture) was greater than 100 mg/mL and the solubility ([2]; THF, organic solvent or mixture) was greater than 100 mg/mL. The solubility ([2]; acetone, organic solvent or mixture) was greater than 100 mg/mL, the solubility ([2]; anisole, organic solvent or mixture) was greater than 100 mg/mL and the solubility ([2]; chloroform, organic solvent or mixture) was greater than 100 mg/mL. For the same compound, the solubility ([2]; cumene, organic solvent or mixture) was greater than 100 mg/mL, the solubility ([2]; cyclohexane, organic solvent or mixture) was greater than 100 mg/mL and the solubility ([2]; diethyl ether, organic solvent or mixture) was greater than 100 mg/mL. The solubility ([2]; ethyl formate, organic solvent or mixture) was greater than 100 mg/mL, the solubility ([2]; heptane, organic solvent or mixture) was 64.6 mg/mL (≈ 205 mM) and the solubility ([2]; isobutanol, organic solvent or mixture) was greater than 100 mg/mL. For the same compound, the solubility ([2]; isooctane, organic solvent or mixture) was 43.9 mg/mL (≈ 140 mM), the solubility ([2]; methylcyclohexane, organic solvent or mixture) was greater than 100 mg/mL and the solubility ([2]; n-decane, organic solvent or mixture) was 36.8 mg/mL (≈ 117 mM). It also gave a solubility ([2]; n-hexane, organic solvent or mixture) greater than 100 mg/mL, a solubility ([2]; p-xylene, organic solvent or mixture) greater than 100 mg/mL and a solubility ([2]; silicone oil, oil or lipid, Silcone oil) of 9.7 mg/mL (≈ 30.8 mM). The solubility ([2]; toluene, organic solvent or mixture) was greater than 100 mg/mL and the solubility ([2]; water) was less than 0.13 mg/mL.
